In US20030023104A1, “Therapeutic compound - fatty acid conjugates” (COMMONWEALTH SCIENTIFIC AND INDUSTRIAL RESEARCH ORGANISATION, priority 1995, published 2003):

What was measured:
[1] = test system: JURKAT cells (acute T cell human leukemia)
Experimental: The cytotoxicity of chlorambucil and chlorambucil fatty acid conjugates (CGTP1. P2 and P3) were tested in vitro with JURKAT cells (acute T cell human leukemia). Cells were incubated with drug and viability was determined by a colourmetric proliferation test. Cytotoxicity towards other cells lines was also tested (PC3 human prostate cancer cells, B16 mouse melanoma cells and human peripheral blood mononuclear cells).
JURKAT cells were seeded into 96-well plates at a density of 1.6×10^4 cells/200 μl complete RPMI ± drug and cultured for 64 h. A 1:3 split of confluent PC3 cells in a 75 cm^2 flask were seeded into a 96-well plate and cultured for 48 h in complete RPMI. Media was removed and complete RPMI ± drug was added to wells. Cells were further cultured for 72 h.
i) Ethanol. Drugs were dissolved in ethanol and added to culture media. The final concentration of ethanol in media was no greater than 1% (v/v). This delivery was used for experiments with JURKAT, PBMC, PC3 and B16 cell types.
ii) Coating of plates. Drugs were dissolved in ethanol and aliquots (up to 40 μl) were added to 90% (v/v) isopropanol. Solution (50 μl) was then added to wells of a 96-well plate and the solvent evaporated by heating at 37° C. Media ± cells was then added. This delivery was used for some experiments with JURKAT cells.
Viability was determined using the MTS assay (CellTiter 96TM AQueous Non-Radioactive Cell Proliferation Assay) from Promega. Reagent (40 μl) was added to each well and absorbance values at 490 nm were determined 1 to 4 h later. The effect of drug on cell viability was compared to cultures set up containing no drug (100% viability). Wells containing no cells were used to control for background absorbance (0% viability). Each concentration was tested in at least 3 wells. Concentrations necessary to cause a 50% inhibition of cellular growth of control cells (IC50) were calculated by linear regression.

[2] = test system: UVB induced immunosuppression; experiment: Contact Hypersensitivity Assay (oxazolone, net ear swelling); type: in vivo, mice; conditions: 0.5% (0.5 mg/mouse) painted within 10 minutes post UVB exposure, total 3 MED UVB
From the text: The assay used the method described in “Current Protocols in Immunology” (Vol 1, Section 4.2 Eds Coligan et al. (1991) NIH). The sensitiser was Oxazalone. Briefly this method was as follows:
UVB Radiation. Mice were irradiated with a single FL40SE UVB fluorescent tube (Oliphant) in a reflective batten, providing […] UVB radiation measured at target distance using an International Light IL1700 radiometer with a UVB detector sensitive between 250-315 nm. The mice received 0.1179 J/cm^2 UVB radiation, constituting 1 minimal erythemal dose (MED) as previously ascertained, on each of 3 consecutive days, being exposed unrestrained with the wire cage tops removed.
Induction of Systemic Contact Hypersensitivity. Test mice were exposed on the dorsum to 1 MED UVB radiation (or no UVB radiation) at the same hour on days 1, 2 and 3. On days 8 and 9, the mice (irradiated and non-irradiated) were sensitized by topical application to the abdominal skin of 0.1 ml of 3% (w/v) oxazolone (Sigma Chemical Co., St Louis, Mo.) freshly prepared in ethanol. On day 15, the pre-challenge ear thickness was measured using the spring micrometer, and the mice were then challenged by the application of 5 ul freshly prepared 3% oxazolone/ethanol solution to both surfaces of each pinna. Ear thickness was again measured repeatedly between 16-24 hours, and the maximum ear thickness was recorded. The net ear swelling was calculated as the difference between the average pre-challenge and the average post-challenge ear thickness for each treatment group. Statistical significance of the differences in net ear swelling between treatment groups was assessed with Student's t test.
The mice were painted with vehicle, 0.5 mg/mouse HC, 0.5 mg/mouse HC-Suc-GTP2. 1 mg/mouse 17-b HC-Suc-GTP3 or 17-b HC within 10 minutes post UVB exposure. A total of 3 MED of unshielded UVB was used. (Table 3)

UVB induced oedema = experiment: UVB erythema assay (net skin fold thickness); type: in vivo, Skh-1 hairless albino female mice
HIV-I U4550 = experiment: Anti HIV activity, Ag gp120 production in infected JM cells; type: cell-based; conditions: JM cells infected with HIV-I U4550, 5 days; read-out: EC50 (concentration which reduces Ag gp120 by 50% in infected cell cultures)
Experimental: (§1) The anti-HIV activities of AZT-Suc-GTP1 and AZT-Suc-GTP2 were also tested. Infected cells were incubated for 5 days with compound. Compounds were dissolved in DMSO and 5-fold dilutions were used. The following parameters were measured: syncytia formation, virus antigen gp120 production, cell survival. Cytotoxicity is also measured in uninfected cells.
(§2) JM (semi mature human T-cell from lymphoblastoid leukemia) infected with HIV-I U4550
EC50=concentration which reduces Ag gp120by 50% in infected cell cultures.

[3] = test system: JM (semi mature human T-cell from lymphoblastoid leukemia); experiment: Cell growth (cytotoxicity) in JM cells; type: cell-based; conditions: 5 days, read-out: IC50 (concentration of drug which reduces cell growth by 50%)
Experimental: as §1, §2
IC50=concentration of drug which reduces cell growth by 50%.

[4] = 0.5 mg/mouse topical in ethanol, applied Day −5 (5 days prior to UV exposure), 2MED UVB, measured 24 h
[5] = 0.5 mg/mouse topical, applied Day 0 after UV exposure, 2MED UVB
[6] = 0.5 mg/mouse topical, applied Day −3 (3 days prior to UV exposure), 2MED UVB
[7] = 1 mg/mouse (1% w/v) topical, applied Day 0 after UV exposure
[8] = 1 mg/mouse (1% w/v) topical, applied Day −3

Row | SMILES | cytotoxicity to JURKAT cells (in words) [1] | Net Ear Swelling [2] | Mean Net Skin Fold Thickness (UVB induced oedema; [4]) | Mean Net Skin Fold Thickness (UVB induced oedema; [5]) | Mean Net Skin Fold Thickness (UVB induced oedema; [6]) | activity equivalent to % of the hydrocortisone activity in protecting against UVB induced oedema (UVB induced oedema; 0.5 mg/mouse, applied at Day 0, post UVB exposure) | Mean Net Skin Fold Thickness (UVB induced oedema; [7]) | Mean Net Skin Fold Thickness (UVB induced oedema; [8]) | protection from erythema and oedema (UVB induced oedema; 0.5 mg/mouse topical in ethanol after 2 MED UVB, 24 h) | Mean Net Skin Fold Thickness (UVB induced oedema; 1 mg/mouse (1% w/v) topical, applied Day −5) | EC50 (HIV-I U4550) | IC50 [3]
1 | CCCCCCCCCCCCCCCC(=O)OCC(CO)(CO)NC(=O)CN [GTP1, Glycine-Tris-Monopalmitate, reference compound] | no activity |  |  |  |  |  |  |  |  |  |  | 
2 | CCCCCCCCCCCCCCCC(=O)OCC(CO)(COC(=O)CCCCCCCCCCCCCCC)NC(=O)CNC(=O)CCC(=O)OCC(=O)C1(O)CCC2C3CCC4=CC(=O)CCC4(C)C3C(O)CC21C (stereo not drawn) [HC-Suc-GTP2, Hydrocortisone-Suc-Gly-Tris-Dipalmitate] |  | 29.8 10^−2 mm | 104.2 ± 14.7 10^−2 mm | 60.6 ± 8.6 10^−2 mm | 94.3 ± 10.3 10^−2 mm | approximately 50% | 57.5 ± 10.9 | 60.8 ± 8.8 |  |  |  | 
3 | C[C@]12CCC(=O)C=C1CC[C@@H]1[C@@H]2[C@@H](O)C[C@@]2(C)[C@H]1CC[C@]2(O)C(=O)CO [Hydrocortisone, hydrocortisone (cortisol or 17 hydroxy corticosterone), reference compound] |  | 32.0 10^−2 mm | 102.7 ± 12.1 10^−2 mm | 10.4 ± 8.19 10^−2 mm | 100.9 ± 7.3 10^−2 mm |  | 7.9 ± 4.4 | 62.9 ± 4.0 | ~100% | 108.3 ± 5.1 |  | 
4 | O=c1[nH]cnc2c1ncn2[C@H]1CC[C@@H](CO)O1 [ddI, reference compound] |  |  |  |  |  |  |  |  |  |  | 1 µM | > 100 µM
